According to patent US20130338574A1, “ORAL MEDICINAL COMPOSITION FOR PATIENTS UNDERGOING PERITONEAL DIALYSIS AND METHOD FOR USING SAME” (TOKAI UNIVERSITY EDUCATIONAL SYSTEM, priority 2010, published 2013):

Key:
[1] = system: dicarbonyl compounds (3-deoxyglucosone) in the intraperitoneal fluid; test: 3-deoxyglucosone in intraperitoneal fluid of uremic rat models, acid peritoneal dialysis fluid (Experimental Example 2); assay type: in vivo, Sprague-Dawley male rats; conditions: oral 30 mg/rat/day, 7 days
From the text: The uremic rat models were produced using 7-week-old (body weight: 300 g or less) Sprague-Dawley male rats (CLEA Japan, Inc.) by the method described in NPL 27 and NPL 28. More specifically, the above rats were first subjected to 1/3 nephrectomy under anesthesia, and then to 1/2 nephrectomy after a week, thereby producing 5/6 nephrectomy rats (rats with kidney subtotal excision). These rats were allowed to freely take a standard diet for experimental rats (containing 1.06% calcium, 0.9% phosphate, and 21% protein; CE2: CLEA Japan, Inc.) and tap water until the eve of slaughter. […]
When the quantitative analysis of pyridoxamine and dicarbonyl compounds (3-deoxyglucosone) in the samples was performed by liquid chromatography (HPLC), the above frozen test samples (serum and intraperitoneal fluid) were used after natural thawing at room temperature. […]
The quantitative analysis of dicarbonyl compounds (3-deoxyglucosone) was performed by reversed-phase high-performance liquid chromatography (HPLC) under the following conditions. The quantitative analysis was performed using a standard calibration curve previously prepared by measurement under the following HPLC conditions using standard solutions of 3-deoxyglucosone of known concentrations. […]
Detection: UV detection of absorbance at a wavelength of 315 nm (UV detector: Shimadzu Corporation)

[2] = Transfer of pyridoxamine into blood and peritoneal cavity after oral administration to uremic rat models; assay type: in vivo, Sprague-Dawley male rats; conditions: oral 30 mg/rat/day, 7 days
From the text: The uremic rat models were produced using 7-week-old (body weight: 300 g or less) Sprague-Dawley male rats (CLEA Japan, Inc.) by the method described in NPL 27 and NPL 28. More specifically, the above rats were first subjected to 1/3 nephrectomy under anesthesia, and then to 1/2 nephrectomy after a week, thereby producing 5/6 nephrectomy rats (rats with kidney subtotal excision). These rats were allowed to freely take a standard diet for experimental rats (containing 1.06% calcium, 0.9% phosphate, and 21% protein; CE2: CLEA Japan, Inc.) and tap water until the eve of slaughter.
The kidney subtotal excision rats with chronic renal failure (uremic rat models) produced in the above manner were separated into two groups (each group: n=3). Distilled water for injection (Otsuka Pharmaceutical Co., Ltd.; here and below) was orally administered compulsorily to Group 1 (control group) once a day, while a pyridoxamine salt aqueous solution prepared by dissolving 30 mg of pyridoxamine dihydrochloride (Sigma; here and below) in 2 mL of distilled water for injection was orally administered compulsorily to Group 2 (pyridoxamine salt orally administered group) once a day. On the 6th day of administration, after distilled water for injection and the pyridoxamine salt aqueous solution were orally administered, respectively, to Groups 1 and 2, 20 ml of a peritoneal dialysis fluid (pH 4.5 to 5.5) (trade name: Dianeal (registered trademark) PD-4 4.25; Baxter Limited) was injected intraperitoneally to both groups.
Subsequently, on the 7th day of administration, as normal, distilled water for injection was orally administered compulsorily to Group 1, and the pyridoxamine salt aqueous solution was orally administered compulsorily to Group 2. […]
When the quantitative analysis of pyridoxamine and dicarbonyl compounds (3-deoxyglucosone) in the samples was performed by liquid chromatography (HPLC), the above frozen test samples (serum and intraperitoneal fluid) were used after natural thawing at room temperature.
First, 50 μL of each test sample (serum and intraperitoneal fluid) was taken in a test tube. […] Subsequently, the mixture was subjected to centrifugation at 12,000 rpm at 4° C. for 10 minutes to precipitate proteins, and the supernatant was then collected for use as a sample for pyridoxamine quantitative analysis by HPLC.
The quantitative analysis of pyridoxamine was carried out under the HPLC conditions described in Experimental Example 1 (2). The quantitative analysis was performed using a standard calibration curve previously prepared by measurement under the above HPLC conditions using standard solutions of pyridoxamine of known concentrations.

[3] = within an hour after last administration, Dianeal PD-4 4.25 i.p. on 6th day

## Cc1ncc(CO)c(CN)c1O.Cl.Cl [pyridoxamine dihydrochloride, Pyridoxamine dihydrochloride]
[1]; acid peritoneal dialysis fluid
  3-deoxyglucosone concentration in the peritoneal cavity relative to control group: less than one-third
[1]; acid peritoneal dialysis fluid (pH 4.5 to 5.5) Dianeal PD-4 4.25, 20 ml i.p., control group 30.8
  3-deoxyglucosone concentration in intraperitoneal fluid: 9.9 µg/mL
[2]; amount in 20.8 ml of collected intraperitoneal fluid
  Pyridoxamine amount in intraperitoneal fluid: 321 µg
[2]
  pyridoxamine concentration in the intraperitoneal cavity, Group 2 relative to Group 1 (control): ≥ 65 times
[2]; [3]
  Pyridoxamine concentration in intraperitoneal fluid: 14.7 µg/mL
  Pyridoxamine concentration in serum: 13.8 µg/mL
